Reference: patent US20240358017A1, “SPIDER WEB ERADICATION AND SPIDER REPELLANT COMPOUND AND METHODS OF USE” (DALRAY, LLC., priority 2023, published 2024)

System: spider web
Test: web eradication / degradation of spider webs by the formulations
Set-up: species or system spiders
Settings: comparison among the presented formulations; research by the inventors to-date
From the text: As to the organic acid components of the above formulations, the chemical reaction for web degradation is exemplified by the following: As mentioned, the pH of compositions within the present invention(s) is an important feature of efficacy. […] As compositions of the present invention(s) are fabricated, the constituencies should be adjusted, as needed, to achieve end products of such acidity. Use of the formulations of the present invention is straight forward. In the simplest form, the solutions can be applied by a simple hand-pump garden sprayer. More pressurized, long-reach delivery may be achieved through various motorized pump systems as are readily available in the marketplace. After observed degradation of the target webs, the resulting “clumps” of digested webs may be simply rinsed from any surface with water.

Lauramidopropyl Betaine
efficacy of web eradication (web degradation): effectively equivalent performance as Cocamipropyl Betaine
